Laboratory results as given in patent US10407409B2, “6-(5-hydroxy-1H-pyrazol-1-yl)nicotinamide inhibitors of PHD” (Takeda Pharmaceutical Company Limited, priority 2013, dated 2019).

Assays:
[1] = test system: HIF1a protein in H9c2 rat cardiomyocytes; experiment: Cell-based HIF-alpha stabilization assay (inhibition of PHD in cells); conditions: Rattus norvegicus, H9c2, 24 h, 24 hrs compound incubation, HIF1a protein by ELISA, read-out: Inhibition of PHD in cells (pEC50) (converted)
In short: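 Rat H9c2 cardiomyocytes, cultured 24 h, were treated 24 h with an 11-point serial dilution of compound. HIF1a in whole-cell lysates was quantified by ELISA as % of the maximal desferrioxamine response. EC50 came from curve fitting; EC50pos is the concentration reaching 50% of the desferrioxamine maximum.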

[2] = target: PHD2 enzyme (residues 181-417) (Homo sapiens (Human), UniProt Q9GZT9); experiment: Inhibition of PHD enzyme (LC/MS peptide hydroxylation assay); assay type: biochemical; conditions: PHD2 (residues 181-417) 5 nM, 60 min pre-incubation; -log(IC50), IC50 molar
Sequence of PHD2 enzyme (residues 181-417) (Q9GZT9 181-417): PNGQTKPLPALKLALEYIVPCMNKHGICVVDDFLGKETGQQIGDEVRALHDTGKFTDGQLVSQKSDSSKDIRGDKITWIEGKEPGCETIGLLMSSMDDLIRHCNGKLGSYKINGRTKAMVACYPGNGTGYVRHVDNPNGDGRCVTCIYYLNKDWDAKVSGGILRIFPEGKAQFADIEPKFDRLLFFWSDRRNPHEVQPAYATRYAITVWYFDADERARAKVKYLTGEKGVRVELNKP
In short: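 PHD2 (5 nM final) preincubated with inhibitor 60 min at RT in 50 mM HEPES, 50 mM KCl, 0.5 mM TCEP, 2 uM FeCl2, 0.1 mg/ml BSA, pH 7.3. Reaction started with biotin-peptide (1 uM), 2-oxoglutarate (2 uM), ascorbate (1 mM), quenched at 60 min; hydroxylated product by LC/MS, reported as pIC50.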

| SMILES | EC50 [1] [nM] | PHD Inhibition (pIC50) [2] |
| --- | --- | --- |
| Cc1c(-c2cnn(-c3ccc(C(=O)N4CCC[C@@H](N(C)CC(F)F)C4)cn3)c2O)ccc(C#N)c1F [Example 336, (R)-4-(1-(5-(3-((2,2-difluoroethyl)(methyl)amino)piperidine-1-carbonyl)pyridin-2-yl)-5-hydroxy-1H-pyrazol-4-yl)-2-fluoro-3-methylbenzonitrile] | 977 | 8.53 |
| Cc1c(-c2cnn(-c3ccc(C(=O)N4CCN(C(C)C)[C@H](C)C4)cn3)c2O)ccc(C#N)c1F [Example 337, (R)-2-fluoro-4-(5-hydroxy-1-(5-(4-isopropyl-3-methylpiperazine-1-carbonyl)pyridin-2-yl)-1H-pyrazol-4-yl)-3-methylbenzonitrile] | 1350 | 8.36 |
| CCN1CCN(C(=O)c2ccc(-n3ncc(-c4ccc(C#N)c(F)c4C)c3O)nc2)C[C@H]1C [Example 338, (R)-4-(1-(5-(4-ethyl-3-methylpiperazine-1-carbonyl)pyridin-2-yl)-5-hydroxy-1H-pyrazol-4-yl)-2-fluoro-3-methylbenzonitrile] | 933 | 8.40 |
| Cc1c(-c2cnn(-c3ccc(C(=O)N4CCN(C(C)C)[C@@H](C)C4)cn3)c2O)ccc(C#N)c1F [Example 339, (S)-2-fluoro-4-(5-hydroxy-1-(5-(4-isopropyl-3-methylpiperazine-1-carbonyl)pyridin-2-yl)-1H-pyrazol-4-yl)-3-methylbenzonitrile] | 2040 | 8.29 |
| Cc1c(-c2cnn(-c3ccc(C(=O)N4CCN(C)[C@H](C)C4)cn3)c2O)ccc(C#N)c1F [Example 340, (R)-4-(1-(5-(3,4-dimethylpiperazine-1-carbonyl)pyridin-2-yl)-5-hydroxy-1H-pyrazol-4-yl)-2-fluoro-3-methylbenzonitrile] | 759 | 8.39 |
| CCN1CCN(C(=O)c2ccc(-n3ncc(-c4ccc(C#N)c(F)c4C)c3O)nc2)[C@@H](C)C1 [Example 341, (S)-4-(1-(5-(4-ethyl-2-methylpiperazine-1-carbonyl)pyridin-2-yl)-5-hydroxy-1H-pyrazol-4-yl)-2-fluoro-3-methylbenzonitrile] | 589 | 8.47 |
| Cc1c(-c2cnn(-c3ccc(C(=O)N4CC5(CN(C)C5)C4)cn3)c2O)ccc(C#N)c1F [Example 342, 2-fluoro-4-(5-hydroxy-1-(5-(6-methyl-2,6-diazaspiro[3.3]heptane-2-carbonyl)pyridin-2-yl)-1H-pyrazol-4-yl)-3-methylbenzonitrile] | 427 | 7.60 |
| Cc1cc(C#N)c(F)cc1-c1cnn(-c2ccc(C(=O)N3CC4(CN(C)C4)C3)cn2)c1O [Example 343, 2-fluoro-4-(5-hydroxy-1-(5-(6-methyl-2,6-diazaspiro[3.3]heptane-2-carbonyl)pyridin-2-yl)-1H-pyrazol-4-yl)-5-methylbenzonitrile] | 1150 | 8.07 |
| Cc1cc(C#N)ccc1-c1cnn(-c2ccc(C(=O)N3CC(N4CCCCC4)C3)cn2)c1O [Example 344, 4-(5-hydroxy-1-(5-(3-(piperidin-1-yl)azetidine-1-carbonyl)pyridin-2-yl)-1H-pyrazol-4-yl)-3-methylbenzonitrile] | 468 | 8.17 |
| Cc1cc(C#N)ccc1-c1cnn(-c2ccc(C(=O)N3CC(N(C)C)C3)cn2)c1O [Example 345, 4-(1-(5-(3-(dimethylamino)azetidine-1-carbonyl)pyridin-2-yl)-5-hydroxy-1H-pyrazol-4-yl)-3-methylbenzonitrile] | 363 | 8.35 |
| Cc1cc(C#N)ccc1-c1cnn(-c2ccc(C(=O)N3CCC4(CCN(C)C4)C3)cn2)c1O (centres unmarked) [Example 346, 4-(5-hydroxy-1-(5-(7-methyl-2,7-diazaspiro[4.4]nonane-2-carbonyl)pyridin-2-yl)-1H-pyrazol-4-yl)-3-methylbenzonitrile] | 372 | 7.75 |
| Cc1cc(C#N)ccc1-c1cnn(-c2ccc(C(=O)N3CCC(N4CCOCC4)C3)cn2)c1O (centres unmarked) [Example 347, 4-(5-hydroxy-1-(5-(3-morpholinopyrrolidine-1-carbonyl)pyridin-2-yl)-1H-pyrazol-4-yl)-3-methylbenzonitrile] | 631 | 8.29 |
| Cc1cc(C#N)ccc1-c1cnn(-c2ccc(C(=O)N3CCC[C@H]3CN3CCCC3)cn2)c1O [Example 348, (S)-4-(5-hydroxy-1-(5-(2-(pyrrolidin-1-ylmethyl)pyrrolidine-1-carbonyl)pyridin-2-yl)-1H-pyrazol-4-yl)-3-methylbenzonitrile] | 741 | 7.72 |
| Cc1cc(C#N)ccc1-c1cnn(-c2ccc(C(=O)N3CCC(CN(C)C)C3)cn2)c1O (centres unmarked) [Example 349, 4-(1-(5-(3-((dimethylamino)methyl)pyrrolidine-1-carbonyl)pyridin-2-yl)-5-hydroxy-1H-pyrazol-4-yl)-3-methylbenzonitrile] | 479 | 7.77 |
| CN1CCC2(CCN(C(=O)c3ccc(-n4ncc(-c5ccc(C#N)cc5)c4O)nc3)C2)C1 (centres unmarked) [Example 350, 4-(5-hydroxy-1-(5-(7-methyl-2,7-diazaspiro[4.4]nonane-2-carbonyl)pyridin-2-yl)-1H-pyrazol-4-yl)benzonitrile] | 3310 | 7.26 |
| N#Cc1ccc(-c2cnn(-c3ccc(C(=O)N4CCC(N5CCOCC5)C4)cn3)c2O)cc1 (centres unmarked) [Example 351, 4-(5-hydroxy-1-(5-(3-morpholinopyrrolidine-1-carbonyl)pyridin-2-yl)-1H-pyrazol-4-yl)benzonitrile] | 5370 | 7.67 |
| N#Cc1ccc(-c2cnn(-c3ccc(C(=O)N4CCC[C@H]4CN4CCCC4)cn3)c2O)cc1 [Example 352, (S)-4-(5-hydroxy-1-(5-(2-(pyrrolidin-1-ylmethyl)pyrrolidine-1-carbonyl)pyridin-2-yl)-1H-pyrazol-4-yl)benzonitrile] | 3470 | 7.47 |
| CN(C)CC1CCN(C(=O)c2ccc(-n3ncc(-c4ccc(C#N)cc4)c3O)nc2)C1 (centres unmarked) [Example 353, 4-(1-(5-(3-((dimethylamino)methyl)pyrrolidine-1-carbonyl)pyridin-2-yl)-5-hydroxy-1H-pyrazol-4-yl)benzonitrile] | 3550 | 7.25 |
| COCCC1(NC(=O)c2ccc(-n3ncc(-c4ccc(C#N)cc4)c3O)nc2)CCCC1 [Example 354, 6-(4-(4-cyanophenyl)-5-hydroxy-1H-pyrazol-1-yl)-N-(1-(2-methoxyethyl)cyclopentyl)nicotinamide] | 1580 | 8.36 |
| CCN1CCCC1CN(C)C(=O)c1ccc(-n2ncc(-c3ccc(C#N)cc3C)c2O)nc1 (centres unmarked) [Example 355, 6-(4-(4-cyano-2-methylphenyl)-5-hydroxy-1H-pyrazol-1-yl)-N-((1-ethylpyrrolidin-2-yl)methyl)-N-methylnicotinamide] | 724 | 7.94 |
| COCCC1(NC(=O)c2ccc(-n3ncc(-c4ccc(C#N)cc4C)c3O)nc2)CCCC1 [Example 356] | 977 | 8.16 |
| COCC[C@@H](C)NC(=O)c1ccc(-n2ncc(-c3ccc(C#N)cc3)c2O)nc1 [Example 357, (R)-6-(4-(4-cyanophenyl)-5-hydroxy-1H-pyrazol-1-yl)-N-(4-methoxybutan-2-yl)nicotinamide] | 2400 | 8.46 |
| COCC[C@H](C)NC(=O)c1ccc(-n2ncc(-c3ccc(C#N)cc3)c2O)nc1 [Example 358, (S)-6-(4-(4-cyanophenyl)-5-hydroxy-1H-pyrazol-1-yl)-N-(4-methoxybutan-2-yl)nicotinamide] | 1150 | 8.75 |
| COCC[C@@H](C)NC(=O)c1ccc(-n2ncc(-c3ccc(C#N)cc3C)c2O)nc1 [Example 359, (R)-6-(4-(4-cyano-2-methylphenyl)-5-hydroxy-1H-pyrazol-1-yl)-N-(4-methoxybutan-2-yl)nicotinamide] | 537 | 8.45 |
| COCC[C@H](C)NC(=O)c1ccc(-n2ncc(-c3ccc(C#N)cc3C)c2O)nc1 [Example 360, (S)-6-(4-(4-cyano-2-methylphenyl)-5-hydroxy-1H-pyrazol-1-yl)-N-(4-methoxybutan-2-yl)nicotinamide] | 407 | 8.60 |
| Cc1cc(C#N)ccc1-c1cnn(-c2ccc(C(=O)N(C)CC3CCCN(C)C3)cn2)c1O (centres unmarked) [Example 361, 6-(4-(4-cyano-2-methylphenyl)-5-hydroxy-1H-pyrazol-1-yl)-N-methyl-N-((1-methylpiperidin-3-yl)methyl)nicotinamide] | 457 | 7.76 |
| Cc1cc(C#N)ccc1-c1cnn(-c2ccc(C(=O)N(C)CC3CCN(C(C)C)C3)cn2)c1O (centres unmarked) [Example 362, 6-(4-(4-cyano-2-methylphenyl)-5-hydroxy-1H-pyrazol-1-yl)-N-((1-isopropylpyrrolidin-3-yl)methyl)-N-methylnicotinamide] | 525 | 7.80 |
| CCN1CCCC1CN(C)C(=O)c1ccc(-n2ncc(-c3ccc(C#N)cc3)c2O)nc1 (centres unmarked) [Example 363, 6-(4-(4-cyanophenyl)-5-hydroxy-1H-pyrazol-1-yl)-N-((1-ethylpyrrolidin-2-yl)methyl)-N-methylnicotinamide] | 2090 | 7.28 |
